US3998795A, “(Acyl-D-α-amino acid-gly-gly-tyr-ala)^1 -somatostatin” (American Home Products Corporation, priority 1975, dated 1976)

System: growth hormone
Assay: In vivo growth hormone release inhibition in Nembutal-treated rats, plasma growth hormone by radioimmunoassay
Conditions: rats 200-250 g, Nembutal 50 mg/kg i.p.; after 5 min octadecapeptide 1000 micrograms/kg s.c.; blood sampled 15 min after administration; control 236 ± 30; p<0.01
Experimental: The in vivo activity of the octadecapeptides of this invention was established with (CH3 CO-D-Ala-Gly-Gly-L-Tyr-L-Ala)^1 -Somatostatin as a representative member of the octadecapeptides of this invention by injecting Nembutal intraperitoneally into rats weighing between 200 and 250 grams in an amount of 50 milligrams per kilogram body weight. After five minutes, the octadecapeptide was administered to the rats, subcutaneously, at a dose of 1000 micrograms per kilogram body weight. The rats blood was sampled 15 minutes after administration of the octadecapeptide and the amount of growth hormone present in the plasma was determined by radioimmunoassay. The octadecapeptide afforded a blood plasma concentration of growth hormone in the test animals of 74 ± 16 nanograms per milliliter as opposed to the concentration of growth hormone in the control animals of 236 ± 30 nanograms per milliliter, at a statistical certainty of p<0.01.

For `CC(=O)N[C@H](C)C(=O)NCC(=O)NCC(=O)N[C@@H](Cc1ccc(O)cc1)C(=O)N[C@@H](C)C(=O)NCC(=O)N[C@H]1CSSC[C@@H](C(=O)O)NC(=O)[C@H](CO)NC(=O)[C@H]([C@@H](C)O)NC(=O)[C@H](Cc2ccccc2)NC(=O)[C@H]([C@@H](C)O)NC(=O)[C@H](CCCCN)NC(=O)[C@H](Cc2c[nH]c3ccccc23)NC(=O)[C@H](Cc2ccccc2)NC(=O)[C@H](Cc2ccccc2)NC(=O)[C@H](CC(N)=O)NC(=O)[C@H](CCCCN)NC1=O` [N-α-Acetyl-D-alanyl-glycyl-glycyl-L-tyrosyl-L-alanyl-glycyl-L-cysteinyl-L-lysyl-L-asparaginyl-L-phenylalanyl-L-phenylalanyl-L-tryptophyl-L-lysyl-L-threonyl-L-phenylalanyl-L-threonyl-L-seryl-L-cysteine (7-18 disulfide) diacetate], the “blood plasma concentration of growth hormone” value was 74 ± 16 nanograms per milliliter.
